{"source": "patent US20200290950A1", "about": "“ALKAMIDE COMPOUNDS AND USES THEREOF” (NORTH CAROLINA STATE UNIVERSITY, priority 2017, published 2020)", "key": {"[1]": {"system": "RBL-2H3 cells", "experiment": "TNF-α ELISA, 18 hrs (Example 3)", "format": "cell-based, rat", "details": "1 μM A23187, 18 hours", "procedure": "FIGS. 25A-25B. […] RBL-2H3 cells were plated overnight and stimulated with 1 μM A23187 in the absence or presence of each alkamide for 18 h. Culture supernatants were analyzed for TNF-α levels by ELISA and experiments were performed in triplicate (FIG. 25A). Percent inhibition of TNF-α secretion for each alkamide listed in FIG. 25B. *P<0.05, **P<0.01, ***P<0.001, one-way ANOVA with Dunnett's post hoc test compared to vehicle (FIG. 25A) or A15 (FIG. 25B).\nRBL-2H3 cells (1.0×10^5 cells) were incubated overnight in a 24 well plate at 37° C. with 5% CO2. Cells were washed with 1×PBS and stimulated with 1 μM A23187 for 18 hrs in the absence or presence of each compound. The cells were centrifuged (1200×g, 5 min) and the supernatants were collected. The concentration of TNF-α in the supernatants were determined using the TNF-α ELISA kit."}, "[2]": {"system": "RBL-2H3 cells", "experiment": "Calcium assay, Fluo-4 (Example 3)", "format": "cell-based, rat", "procedure": "FIGS. 22A-22D. The alkamide fatty acid is necessary for inhibition of calcium influx. RBL-2H3 cells were plated overnight, incubated with Fluo-4 AM for 1 h, stimulated by 1 μM A23187 (FIG. 22A) or 5 ng/mL DNP-BSA (FIG. 22B) in the absence or presence of each alkamide, and fluorescence was read for 2 mins every 5 secs. Data are presented as the mean change in RFU of 4 experiments. Percent inhibition of calcium influx was calculated for A23187 (FIG. 22C) and DNP-BSA (FIG. 22D) stimulated cells at 2 mins. *P<0.05, **P<0.01, and ***P<0.001 one-way ANOVA with Dunnett's post hoc test compared to A15.\nRBL-2H3 cells (1.0×10^5 cells) were incubated overnight in a 96 well black-wall clear bottom plate with or without IgE-DNP (0.1 μg/mL) at 37° C. with 5% CO2. The assay was performed using the Fluo-4 Direct™ Calcium Assay Kit according to the manufacturer's instruction. Briefly, cells were incubated with the Fluo-4 Direct calcium reagent loading solution for 30 minutes at 37° C. with 5% CO2 then 30 mins at room temperature. Prior to stimulation, the well baseline fluorescence was measured every 5 seconds over 1 minute using a BioTek Synergy HT microplate reader with 485/20 nm excitation and 528/20 nm emission filters. Cells were stimulated with 1 μM A23187 or 5 ng/mL DNP (IgE-DNP) in the absence or presence of each compound, and the fluorescence was measured every 5 seconds over 2 minutes. The change in fluorescence (ΔRT) was calculated as the sample fluorescence minus the baseline fluorescence for each well."}, "[3]": {"experiment": "TDI-induced scratching bouts (itch)", "format": "in vivo, mouse", "details": "higher dose 1.0%", "description": "(§1) Several different model systems were utilized for these experiments. In one model, dorsal root ganglia were obtained from mice and the neurons cultured in vitro. The neurons were then stimulated in the presence/absence of A15 and YM8-85 and the calcium responses monitored by fluorescence microscopy. In the second model, the alkamides were applied to mouse skin in mineral oil. The reactions of these mice to heat, cold, and tactile stimulation was then compared with mice that had not received treatment with A15. In a third model, mice were sensitized to the chemical compound toluene-2,4-diisocyanate (TDI). TDI is an industrial chemical which causes hypersensitive skin lesions and itching in exposed humans and animals. The physiological response to TDI is complex involving type 2 T lymphocytes, cytokines, mast cells, and neurons. Alkamides were applied to sensitized animals and then ear swelling and bouts of scratching were monitored.\nThe effects of A15 on TDI-induced itch. The itch response was also monitored in mice sensitized and treated with TDI. Treated mice were video recorded and the number of scratching bouts quantified by an observer."}, "[4]": {"target": "T1, TRPA1 (Mus musculus, UniProt Q8BLA8)", "T1 construct": "The receptors TRPA1 and TRPV1 are expressed on neurons; from tissue; host or cells: primary dorsal root ganglion neurons from mice", "T1 sequence (Q8BLA8 whole entry)": "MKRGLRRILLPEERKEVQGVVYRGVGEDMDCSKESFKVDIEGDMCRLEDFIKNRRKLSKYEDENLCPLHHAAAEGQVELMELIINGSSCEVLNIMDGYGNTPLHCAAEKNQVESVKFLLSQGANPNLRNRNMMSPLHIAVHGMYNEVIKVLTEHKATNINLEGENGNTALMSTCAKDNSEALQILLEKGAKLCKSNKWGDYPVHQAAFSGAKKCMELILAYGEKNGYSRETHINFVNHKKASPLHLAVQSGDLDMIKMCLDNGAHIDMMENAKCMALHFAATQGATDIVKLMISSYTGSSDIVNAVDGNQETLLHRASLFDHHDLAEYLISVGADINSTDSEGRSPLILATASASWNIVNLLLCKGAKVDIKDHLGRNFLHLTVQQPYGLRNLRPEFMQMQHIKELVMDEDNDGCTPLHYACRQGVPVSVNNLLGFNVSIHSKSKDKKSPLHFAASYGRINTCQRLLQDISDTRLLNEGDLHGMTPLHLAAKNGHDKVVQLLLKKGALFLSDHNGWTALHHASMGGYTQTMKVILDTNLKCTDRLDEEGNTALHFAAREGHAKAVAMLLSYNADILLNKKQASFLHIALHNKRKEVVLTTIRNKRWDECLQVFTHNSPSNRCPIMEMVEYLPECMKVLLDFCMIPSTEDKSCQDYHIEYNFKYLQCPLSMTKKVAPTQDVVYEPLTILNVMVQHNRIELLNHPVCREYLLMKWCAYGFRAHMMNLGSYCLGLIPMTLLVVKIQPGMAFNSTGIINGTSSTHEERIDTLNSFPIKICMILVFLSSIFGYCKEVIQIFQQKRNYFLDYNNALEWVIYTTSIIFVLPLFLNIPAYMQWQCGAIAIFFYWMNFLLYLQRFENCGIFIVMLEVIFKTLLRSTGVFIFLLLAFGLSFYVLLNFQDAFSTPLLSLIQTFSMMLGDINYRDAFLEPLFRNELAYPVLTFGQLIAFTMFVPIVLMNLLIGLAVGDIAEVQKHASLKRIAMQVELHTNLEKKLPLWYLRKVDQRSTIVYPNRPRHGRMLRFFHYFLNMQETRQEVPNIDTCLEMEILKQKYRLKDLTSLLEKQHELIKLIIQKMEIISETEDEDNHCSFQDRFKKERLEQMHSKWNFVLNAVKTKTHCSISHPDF", "experiment": "Calcium response of DRG neurons to mustard (allyl isothiocyanate)", "format": "cell-based", "details": "cultured DRG neurons, fluorescence microscopy", "description": "FIG. 11. Calcium response from DRG sensory neurons to alkamide of transient receptors. Mustard a TRPA1-receptor agonist activates DRG neurons in gray (A) and capsaicin, an agonist for TRPV1-receptors in the DRG neurons in red (B). Ligand A15 inhibits both TRPA1 and TRPV1 receptors activation in orange; however, 85Y a synthetic ligand only reduces the inhibition of TRPA1 but not TRPV1 receptors in blue. Total number of neurons (n)=135-145; p≤0.05.\nas §1, with “In a third model, mice were sensitized to the chemical compound toluene-2,4-diisocyanate (TDI). TDI is an industrial chemical which causes hypersensitive skin lesions and itching in exposed humans and animals. The physiological response to TDI is complex involving type 2 T lymphocytes, cytokines, mast cells, and neurons.” left out\nIn vitro DRG neuron responses. […] Neurons were stimulated with mustard (allyl isothiocyanate) (A) an agonist for the receptor TRPA-1 or capsaicin (B) an agonist for the receptor TRPV-1 and calcium responses were measured in individual neurons by fluorescence microscopy. […]"}, "[5]": {"system": "RBL-2H3 cells", "experiment": "β-Hexosaminidase release assay (Example 3)", "format": "cell-based, rat", "procedure": "FIGS. 21A-21D. The inhibition of degranulation is dependent on the length of the alkamide fatty acid chain. RBL-2H3 cells were plated overnight, stimulated with 1 μM A23187 (FIG. 21A) or 5 ng/mL DNP-BSA (FIG. 21B) for 1 h in the absence or presence of each compound. Graphs display the mean percent β-hex release. Data are presented as the mean of 4 experiments. Percent inhibition of degranulation of A23187 (FIG. 21C) or DNP-BSA (FIG. 21D) using data from A and B, respectively. *P<0.05, **P<0.01, ***P<0.001, one-way ANOVA with Dunnett's post hoc test compared to vehicle (A, B) or A15 (C, D).\nRBL-2H3 cells (1.0×10^5 cells) were incubated with or without 0.1 μg/mL of IgE-DNP overnight in a 96 well plate at 37° C. with 5% CO2. The cells were washed with Tyrode's buffer and assayed with few modifications (Kuehn, Radinger, & Gilfillan, 2010). Briefly, IgE-DNP sensitized cells were stimulated 1 hour with 5 ng/mL of DNP-BSA in the absence or presence of each compound and incubated at 37° C. with 5% CO2. For experiments using only A23187 as the stimulant, cells were washed with Tyrode's buffer and stimulated 1 hour with 1 μM A23187 in the absence or presence of each compound and incubated at 37° C. with 5% CO2. The stimulated cells were centrifuged at 1200×g for 5 minutes. The supernatant or cell lysate (30 μL) was incubated with 3.4 mg/mL of p-NAG (10 μL) for 1 hour at 37° C. The reaction was terminated by addition of 0.2 M sodium carbonate (pH 10) and the absorbance was read at OD405 nm on a BioTek Synergy HT microplate reader. The total 3-hexosaminidase released from the cell was calculated as the difference between the OD of the supernatant and blank plus the difference between the OD of the lysate and blank. The percent β-hexosaminidase released from the cell was calculated as the difference between the OD of the supernatant and blank divided by the total β-hexosaminidase released from the cell multiplied by 100: ODsupernatant−ODblank/[(ODlysate−ODblank)+(ODsupernatant−ODblank)]*100."}, "[6]": {"experiment": "TDI-induced ear swelling", "format": "in vivo, mouse", "description": "as §1\nA15 and TDI induced hypersensitivity. Mice were sensitized to toluene-2,4-diisocyanate (TDI) via abdominal application. Subsequently, a hypersensitive response was induced in the ear by direct application of TDI and ear thickness measured as a sign of inflammation."}}}
{"compound": "CCCCCCCC(=O)NCC(C)C", "note": "[YM8-85, N-Isobutyloctanamide]", "values": [{"measurement": "percent inhibition of TNF-α secretion", "setting": "[1]", "value": 43, "unit": "%"}, {"measurement": "percent inhibition of calcium influx", "setting": "[2]; 5 ng/mL DNP-BSA, at 2 minutes", "value": 49, "unit": "%"}, {"measurement": "percent inhibition of calcium influx", "setting": "[2]; 1 μM A23187, at 2 minutes", "value": 91, "unit": "%"}, {"measurement": "scratching bouts in TDI treated mice", "setting": "[3]", "value": "significant inhibition of scratching"}, {"measurement": "DRG neuron calcium response to mustard (TRPA1 agonist)", "setting": "[4]", "value": "inhibit"}, {"measurement": "percent inhibition of degranulation", "setting": "[5]; 5 ng/mL DNP-BSA, 1 hour", "value": 60, "unit": "%"}, {"measurement": "percent inhibition of degranulation", "setting": "[5]; 1 μM A23187, 1 hour", "value": 64, "unit": "%"}, {"measurement": "TDI ear swelling (ear thickness)", "setting": "[6]; 0.1%, first experiment (FIG. 13A)", "value": "significant responses were not seen"}, {"measurement": "TDI ear swelling (ear thickness)", "setting": "[6]; 0.1%, repeated experiment (FIG. 13B)", "value": "neither A15 nor YM8-85 at 0.1% produced significant inhibition"}, {"measurement": "TDI ear swelling (ear thickness)", "setting": "[6]; 1%, first experiment (FIG. 13A)", "value": "significant responses were not seen"}]}
